Data reported in US11932641B1, “Pyrido[4′,3′:4,5]pyrrolo[3,2-b][1,7]naphthyridine compounds as CK2 inhibitors” (KING FAISAL UNIVERSITY, priority 2023, dated 2024).

Legend:
PC3 (prostate) = assay: In vitro cytotoxic activity (MTT) assay, PC3; format: cell-based; details: Homo sapiens, Prostate cell; PC3 (prostate) cells, 96 hours exposure; read-out: IC50, 50% inhibition of cell proliferation
Description: (§1) Compounds 1-12 were screened for their in vitro cytotoxic activity utilizing a 3-(4,5-dimethyl-thiazol-2-yl)-2,5-diphenyltetrazolium bromide (MTT) assay against selected cancer human cell lines consisting of PC3 (prostate), HCT116 (colon), A375 (melanoma), H1299 (lung), MIAPaCa-2 (pancreas), HL60 (leukemia), MCF7 (breast), MDA-MB-231 (breast) (T. Mosmann, J. Immunol. Meth., 1983, 65, 55-63). The cells were cultured at 37° C. in RMPI1640 medium supplemented with 10% fetal bovine serum, 50 IU/mL penicillin, and 50 μg/mL streptomycin in a 5% CO2 incubator. All cells were sub-cultured 3 times/week by trypsinisation. Viable cells were seeded and allowed to adhere for 12 h before a test drug was added in 96-well plates at an initial density of 1.0×10^5 cells/mL. Tumour cell lines were separately exposed to various concentrations of the tested compounds followed by incubation at a temperature of 37° C. during 96 h inside a medium of fresh RMPI 1640. Cells were subsequently incubated at 37° C. using MTT at 0.5 mg/mL during 4 h. After removal of supernatant, formazan crystals were dissolved in isopropanol and the optical density was measured at 570 nm. CX-4945 was used as a positive control.

H1299 (lung) = assay: In vitro cytotoxic activity (MTT) assay, H1299; format: cell-based; details: Homo sapiens, NCI-H1299; H1299 (lung) cells, 96 hours exposure; read-out: IC50, 50% inhibition of cell proliferation
Description: as §1

HCT116 (colon) = assay: In vitro cytotoxic activity (MTT) assay, HCT116; format: cell-based; details: Homo sapiens, HCT-116; HCT116 (colon) cells, 96 hours exposure; read-out: IC50, 50% inhibition of cell proliferation
Description: as §1

MIAPaCa-2 (pancreas) = assay: In vitro cytotoxic activity (MTT) assay, MIAPaCa-2; format: cell-based; details: Homo sapiens, MIA PaCa-2; MIAPaCa-2 (pancreas) cells, 96 hours exposure; read-out: IC50, 50% inhibition of cell proliferation
Description: as §1

A375 (melanoma) = assay: In vitro cytotoxic activity (MTT) assay, A375; format: cell-based; details: Homo sapiens, A-375; A375 (melanoma) cells, 96 hours exposure; read-out: IC50, 50% inhibition of cell proliferation
Description: as §1

[1] = target: T1, recombinant human CK2 (RRββ-holoenzyme) (Homo sapiens, UniProt P68400); assay: CK2 kinase assay (33P-ATP, filter plate); format: biochemical; details: final ATP 15 μM, 10 min at 30° C.; read-out: protein kinase CK2 IC50
T1 construct: purchased Millipore
Description: CK2 Kinase Assay was conducted using the protocol as described in Pierre F. et al; J. Med Chem. 2011, 54, 635-654. The tested compounds in aqueous solution were added at a volume of 10 μL to a reaction mixture comprising 10 μL of assay dilution buffer (ADB; 20 mM MOPS, pH 7.2, 25 mM β-glycerol phosphate, 5 mM EGTA, 1 mM sodium orthovanadate, and 1 mM dithiothreitol), 10 μL of substrate peptide (RRRDDDSDDD, dissolved in ADB at a concentration of 1 mM), 10 μL of recombinant human CK2 (RRββ-holoenzyme, 25 ng dissolved in ADB; Millipore). Reactions were initiated by the addition of 10 μL of ATP solution (90% 75 mMMgCl2, 75 μM ATP (final ATP concentration: 15 μM) dissolved in ADB; 10% [γ-33P] ATP (stock 1 mCi/100 μL; 3000 Ci/mmol (Perkin-Elmer) and maintained for 10 min at 30° C. The reactions were quenched with 100 μL of 0.75% phosphoric acid and then transferred to and filtered through a phosphor cellulose filter plate (Millipore). After washing each well five times with 0.75% phosphoric acid, the plate was dried under vacuum for 5 min and, following the addition of 15 μL of scintillation fluid to each well, the residual radioactivity was measured using a Wallac […]. The IC50 values were derived from eight concentrations of test inhibitors.

MCF7 (breast) = assay: In vitro cytotoxic activity (MTT) assay, MCF7; format: cell-based; details: Homo sapiens; MCF7 (breast) cells, 96 hours exposure; read-out: IC50, 50% inhibition of cell proliferation
Description: as §1

HL60 (leukemia) = assay: In vitro cytotoxic activity (MTT) assay, HL60; format: cell-based; details: Homo sapiens, HL-60; HL60 (leukemia) cells, 96 hours exposure; read-out: IC50, 50% inhibition of cell proliferation
Description: as §1

MDA-MB-231 (breast) = assay: In vitro cytotoxic activity (MTT) assay, MDA-MB-231; format: cell-based; details: Homo sapiens; MDA-MB-231 (breast) cells, 96 hours exposure; read-out: IC50, 50% inhibition of cell proliferation
Description: as §1

T1 sequence (P68400 whole entry): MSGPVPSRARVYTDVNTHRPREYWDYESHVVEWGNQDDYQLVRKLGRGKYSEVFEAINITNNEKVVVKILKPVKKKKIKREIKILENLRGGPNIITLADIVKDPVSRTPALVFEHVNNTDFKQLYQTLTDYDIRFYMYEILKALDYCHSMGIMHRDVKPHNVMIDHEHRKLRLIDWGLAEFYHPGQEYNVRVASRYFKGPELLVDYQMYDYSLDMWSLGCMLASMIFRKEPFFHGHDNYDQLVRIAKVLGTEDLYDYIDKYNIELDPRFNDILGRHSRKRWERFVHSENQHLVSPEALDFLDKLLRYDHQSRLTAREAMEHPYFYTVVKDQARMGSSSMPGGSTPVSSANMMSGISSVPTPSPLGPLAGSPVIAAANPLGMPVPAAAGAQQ
T1 sequence (P67870 whole entry partner): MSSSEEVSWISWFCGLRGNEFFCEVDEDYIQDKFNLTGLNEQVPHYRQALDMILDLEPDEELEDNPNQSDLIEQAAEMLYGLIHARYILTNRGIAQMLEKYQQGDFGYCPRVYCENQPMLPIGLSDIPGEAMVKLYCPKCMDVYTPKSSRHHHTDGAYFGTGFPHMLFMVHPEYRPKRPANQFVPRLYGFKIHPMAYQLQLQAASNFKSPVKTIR

IC50 [1]: 5 nM
Structure (SMILES): Clc1ccc(Nc2c3ccncc3nc3c2[nH]c2cnccc23)cc1 [Compound 1, N-(4-chlorophenyl)-11H-pyrido[4′,3′:4,5]pyrrolo[3,2-b][1,7]naphthyridin-10-amine]
IC50 (PC3 (prostate)): 1300 nM
IC50 (H1299 (lung)): 2400 nM
IC50 (HCT116 (colon)): 1500 nM
IC50 (MIAPaCa-2 (pancreas)): 1600 nM
IC50 (A375 (melanoma)): 3400 nM
IC50 (MCF7 (breast)): 8500 nM
IC50 (HL60 (leukemia)): 3100 nM
IC50 (MDA-MB-231 (breast)): 5200 nM
